The record followed here is US11654199B2 (BOLT BIOTHERAPEUTICS, INC., priority 2019, dated 2023).

This assay has as its target T1, human TLR8 (Homo sapiens, UniProt Q9NR97).
T1 construct: host or cells: HEK293 reporter cells
T1 sequence (Q9NR97 27-1041): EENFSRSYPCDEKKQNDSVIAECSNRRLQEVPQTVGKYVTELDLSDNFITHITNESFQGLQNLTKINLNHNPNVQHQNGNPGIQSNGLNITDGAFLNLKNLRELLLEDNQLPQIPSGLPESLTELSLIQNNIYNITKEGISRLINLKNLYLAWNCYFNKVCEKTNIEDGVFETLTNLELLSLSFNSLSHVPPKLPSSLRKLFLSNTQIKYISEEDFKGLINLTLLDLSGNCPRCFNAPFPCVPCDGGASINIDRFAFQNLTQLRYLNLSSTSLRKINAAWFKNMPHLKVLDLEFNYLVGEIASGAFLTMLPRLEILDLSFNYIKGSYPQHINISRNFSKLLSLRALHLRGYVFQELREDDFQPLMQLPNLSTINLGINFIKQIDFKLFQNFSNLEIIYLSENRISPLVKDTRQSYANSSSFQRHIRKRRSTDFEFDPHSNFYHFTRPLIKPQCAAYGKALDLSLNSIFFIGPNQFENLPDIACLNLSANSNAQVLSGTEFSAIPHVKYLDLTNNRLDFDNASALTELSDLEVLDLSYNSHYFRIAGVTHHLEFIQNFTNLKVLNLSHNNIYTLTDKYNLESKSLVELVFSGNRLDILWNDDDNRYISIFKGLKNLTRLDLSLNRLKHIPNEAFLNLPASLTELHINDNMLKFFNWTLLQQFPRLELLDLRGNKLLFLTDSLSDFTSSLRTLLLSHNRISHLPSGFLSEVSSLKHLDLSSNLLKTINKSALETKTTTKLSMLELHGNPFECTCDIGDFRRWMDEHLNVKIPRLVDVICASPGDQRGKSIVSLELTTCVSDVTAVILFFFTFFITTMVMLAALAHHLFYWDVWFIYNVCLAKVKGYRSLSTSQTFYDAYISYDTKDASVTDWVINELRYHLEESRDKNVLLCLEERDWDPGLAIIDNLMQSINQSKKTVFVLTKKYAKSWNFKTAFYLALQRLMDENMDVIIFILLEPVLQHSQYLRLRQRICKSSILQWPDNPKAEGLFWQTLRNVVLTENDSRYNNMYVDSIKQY
Briefly: HEK293 NFKB reporter assay, human TLR8. The conditions noted are these: HEK293 NFKB reporter cells expressing human TLR8; read-out: HEK293 hTLR8 EC50. It is filed as cell-based. Here is the method: Each compound was synthesized, purified, and characterized by mass spectrometry and shown to have the mass indicated. Additional experimental procedures are found in the Examples. Activity against HEK293 NFKB reporter cells expressing human TLR7 or human TLR8 was measured according to Example 202.
HEK293 reporter cells expressing human TLR7 or human TLR8 were purchased from Invivogen and vendor protocols were followed for cellular propagation and experimentation. Briefly, cells were grown to 80-85% confluence at 5% CO2 in DMEM supplemented with 10% FBS, Zeocin, and Blasticidin. Cells were then seeded in 96-well flat plates at 4×10^4 cells/well with substrate containing HEK detection medium and immunostimulatory molecules. Activity was measured using a plate reader at 620-655 nm wavelength.

As to `CCCN(CCC)C(=O)C1=Cc2sccc2N=C(N)C1` [TAZ-2, 5-amino-N,N-dipropyl-6H-thieno[3,2-b]azepine-7-carboxamide], the EC50 stood at 2390 nM.

Consider `CCCN(CCC)C(=O)C1=Cc2sc(CCCCCN)cc2N=C(N)C1` [TAZ-14, 5-amino-2-(5-aminopentyl)-N,N-dipropyl-6H-thieno [3,2-b]azepine-7-carboxamide], for which the EC50 is 4940 nM. The same measure for `CCCN(CC#CCNC(=O)OC(C)(C)C)C(=O)C1=Cc2sccc2N=C(N)C1` [TAZ-16, tert-butyl N-[4-[(5-amino-6H-thieno[3,2-b]azepine-7-carbonyl)-propyl-amino]but-2-ynyl]carbamate]: 6110 nM; for `CCCN(CC#CCN)C(=O)C1=Cc2sccc2N=C(N)C1` [TAZ-17, 5-amino-N-(4-aminobut-2-ynyl)-N-propyl-6H-thieno[3,2-b]azepine-7-carboxamide]: 4100 nM. The result for `CCCN(Cc1ccc(CN)cc1)C(=O)C1=Cc2sccc2N=C(N)C1` [TAZ-30, 5-amino-N-(4-(aminomethyl)benzyl)-N-propyl-6H-thieno[3,2-b]azepine-7-carboxamide] reads 641 nM; that for `CCCN(Cc1ccc(CNC)cc1)C(=O)C1=Cc2sc(CCCCCN(C)C)cc2N=C(N)C1` [TAZ-65, 5-amino-2-[5-(dimethylamino)pentyl]-N-[[4-(methylaminomethyl)phenyl]methyl]-N-propyl-6H-thieno[3,2-b]azepine-7-carboxamide], 311 nM; that for `CCCN(C[C@H]1C[C@H](CN)C1)C(=O)C1=Cc2sccc2N=C(N)C1` [TAZ-69], 4300 nM. The result for `CCCN(CCC)C(=O)C1=Cc2sc(COCCN)cc2N=C(N)C1` [TAZ-81] reads 7950 nM; that for `CCCN(CCC)C(=O)C1=Cc2sc(CNC(=O)CN)cc2N=C(N)C1` [TAZ-92], 2830 nM; that for `CCCN(C[C@H]1CC[C@H](CN)CC1)C(=O)C1=Cc2sccc2N=C(N)C1` [TAZ-97], greater than 9000 nM.

As for `CCCN(C[C@H]1CC[C@H](CNC(=O)OC(C)(C)C)CC1)C(=O)C1=Cc2sccc2N=C(N)C1` [TAZ-98], the concentration for a half-maximal effect (EC50) came to 631 nM. The same measure for `CCCN(C(=O)C1=Cc2sccc2N=C(N)C1)N(C)CC` [TAZ-100]: greater than 9000 nM; for `CCCN(OCc1ccc(OC)cc1)C(=O)C1=Cc2sccc2N=C(N)C1` [TAZ-101]: 203 nM; for `CCCN(C[C@H]1CC[C@@H](CN)CC1)C(=O)C1=Cc2sccc2N=C(N)C1` [TAZ-118]: 4440 nM. Regarding `CCCN(CCC)C(=O)C1=Cc2scc(C)c2N=C(N)C1` [TAZ-168], the 50% effective concentration (EC50) worked out at 3870 nM.

As for `CCCN(OCC)C(=O)C1=Cc2sc(CC3CCN(C(=O)OC(C)(C)C)CC3)cc2N=C(N)C1` [TAZ-179], the concentration for a half-maximal effect (EC50) was found to be 2540 nM. `CCCN(OCC)C(=O)C1=Cc2sc(C#CC3CN(C(=O)OC(C)(C)C)C3)cc2N=C(N)C1` [TAZ-187]: the EC50 is 964 nM. On to `CCCN(OCC)C(=O)C1=Cc2sc(C#CC3(O)CN(C(=O)OC(C)(C)C)C3)cc2N=C(N)C1` [TAZ-188], for which the half-maximal effective concentration (EC50) was found to be 7800 nM. Turning to `CCCN(OCC)C(=O)C1=Cc2sc(CN3Cc4ccc(NC(=O)CCN)cc4C3)cc2N=C(N)C1` [TAZ-201], the EC50 was 2960 nM.

For the compound `CCCN(OCC)C(=O)C1=Cc2sc(CN3CC(CN)C3)cc2N=C(N)C1` [TAZ-211], the EC50 came to 4320 nM.

Turning to `CCCN(OCC)C(=O)C1=Cc2sc(CN3C[C@@H]4CN(C(=O)OC(C)(C)C)C[C@@H]4C3)cc2N=C(N)C1` [TAZ-242], the EC50 stood at 3780 nM. The result for `CCCN(OCC)C(=O)C1=Cc2sc(CN3CCC(N)CC3)cc2N=C(N)C1` [TAZ-243] reads 164 nM; that for `CCCN(OCC)C(=O)C1=Cc2sc(CN3CC4(CCN4Cc4ccccc4)C3)cc2N=C(N)C1` [TAZ-246], 1110 nM. Turning to `CCCN(OCC)C(=O)C1=Cc2sc(CN3C[C@H]4CNC[C@H]4C3)cc2N=C(N)C1` [TAZ-247], the concentration for a half-maximal effect (EC50) was determined as 418 nM. Turning to `CCCN(OCC)C(=O)C1=Cc2sc(CN3C[C@H]4CN(C(=O)OC(C)(C)C)C[C@@H]4C3)cc2N=C(N)C1` [TAZ-248], the EC50 came to 1110 nM. On to `CCCN(Cc1ncco1)C(=O)C1=Cc2sc(CC3CNC3)cc2N=C(N)C1` [TAZ-256], for which the EC50 is 3410 nM.
